Reference: patent US6601010B1 (priority 2000, dated 2003)
Counter-ions that a name gives are not always drawn. Like-named read-outs stand apart in the source and are kept apart here.

Experiments:
BALB/c and C57BL/6 mice = assay: Wall rearing of mice counted by the force plate actometer algorithm; assay type: in vivo, mouse; conditions: amphetamine 2.5 mg/kg, 30-min session
Text: The preferred force plate actometer of this invention provides data that, when appropriately filtered and processed, provides estimates of the number of wall rears that an animal makes. This is of importance in pharmacology and behavioral genetics studies because some drugs are known to suppress rearing, and genetic endowment influences mouse rearing behavior. It is possible to detect wall rearing because when the mouse rears on hind legs and presses its forepaws against the side of the enclosure a substantial proportion of its body weight is transferred to the wall which is suspended above the force plate. […] Data from four chambers are concurrently expressed as the smoothed Fz values, and these are processed in a stream from the beginning of the session to the end of the session. The rears are quantified according to occurrence, intensity, duration of the rear, and time between the rears.
The program was validated by comparing the results from a human observer viewing video tapes taken from 30-min sessions of force plate recording for two mice: one BALB/c and one C57BL/6 mouse, two very genetically different mice. In terms of number of rears for the BALB/c mouse the video scored and computer scored wall rears were correlated +0.842 across 30 1-min blocks of the session. […]

[1] = tested on: BALB/c, C57BL/6 and CD-1 mice; assay: Mouse strain differences in response to daily treatment with d-amphetamine (force plate actometer); assay type: in vivo
Description: Male mice from Charles River Laboratories. BALB/c (n=32), C57BL/6 (n=32), and CD-1 (an outbred strain, n=32), were about 10 weeks old when the treatments began.
Four currently operating force plate chambers were used (the cylindrical insert was not present).
For each type of mouse, 4 dose groups were formed so that 8 mice of each strain received either saline, 1.0, 2.5 or 5.0 mg/kg d-amphetamine. On five consecutive days the mice received ip injections 1-2 min before being placed in the recording chambers for 30 min. Immediately before the drug session each mouse received a 30-min recording session preceded by a saline injection.
Data were analyzed with a version of OFFLINEP.PAS that divided the session into 9 intervals of 3 min and 24.8 s, instead of 45 frames as in the studies described in the preceding Examples. However, some graphic analyses were carried out with 45 frames. Analysis of variance was used to assess the effects of strain, dose, time within a session, and days of treatment (i.e., a 3×4×9×5 factorial design).

[2] = tested on: unilaterally 6-hydroxydopamine lesioned and sham rats; assay: Rotational behavior induced by d-amphetamine in rats unilaterally lesioned with 6-hydroxydopamine (Parkinsonism model); assay type: in vivo, rat; conditions: d-amphetamine 3.0 mg/kg ip
Description: These rats met the same specifications as those used in Examples 1 and 2.
The apparatus was the force plate actometer with the cylindrical insert installed as depicted in FIG. 20. This insert presents the rat with a circular arena in which it can move. Note that neither harness nor tether was used. The rotations were calculated by the computer from the position coordinates derived from the force plate.
Rats were lesioned with the neurotoxin 6-hydroxydopamine. Surgery was performed under ketamine plus xylazine anesthesia. A Kopf stereotaxic instrument was used to guide the injection cannula to the substantia nigra pars compacta. A sham surgery group received the same surgical procedure but saline instead of toxin. About 2 weeks after surgery and at two week intervals rats received three separate injections of d-amphetamine (3.0 mg/kg, ip, 15 min prior to recording sessions). Data shown here were from one control rat and one lesioned rat for the third drug treatment. Data were analyzed with the OFFLINEP.PAS program (FIGS. 18A-18C).

male Sprague-Dawley rats = assay: Instrument-scored stereotypies induced by d-amphetamine in rats (force plate actometer); assay type: in vivo, rat
Description: The subjects were male Sprague-Dawley rats about 4 months old at the time of the treatments. Nine rats received amphetamine injections and 8 separate rats got physiological saline injections. These rats weighed about 350 g each and were obtained from Harlan Co., Indianapolis, Ind.
The apparatus was four concurrently operating force plate actometers as described previously.
Rats in the amphetamine group were injected (ip.) with d-amphetamine sulfate 3.0 mg/kg 15 min before being placed in the chambers for 30 min of recording. Amphetamine injections were administered on three separate occasions spaced 2 weeks apart for each amphetamine group rat. Data from the 3rd session, when stereotypies were expected to be intense, were used for the analyses. Rats in the saline group received ip injections of physiological saline before recording sessions on three separate days. Data from the 3rd day were used for comparison with the amphetamine group.
Data were analyzed with the computer program OFFLINEP.PAS (FIGS. 18A-18C) and with additional techniques available in Systat. The program OFFLINEP.PAS identified bouts of low mobility, defined as periods of no locomotion outside of a 30 mm diameter circle for 10.24 s. Corresponding records of the force variation during the same time frame were stored so that the rhythmic components of behavior could be quantified with Fourier analysis. The basic concept was to define stereotypy as the intensity and rhythm of behavior occurring in “one place” under the influence of a stereotypy-inducing dose of amphetamine and to compare these measures to animals “staying in one place” but not under the influence of a drug.

[3] = tested on: CD-1, BALB/c and C57BL/6 mice; conditions: 2.0 g/kg ip; for locomotor stimulation during the first time block: versus saline control
Description: The subjects were 12 male mice of each of the three strains: CD-1, BALB/c, and C57BL/6 obtained from Charles River Laboratories.
The force plate actometer was used as described above.
The mice were subdivided into groups of 6 each. One group received saline, and the corresponding other group of that strain received a dose of 2.0 g/kg of ethanol in a 20% aqueous solution. This was the first exposure to the chamber for these mice. Within 1-2 min of the ip injection the mice were placed in the chamber and behavior was recorded for 30 min.
The distance data were divided into 6 blocks of 5 min each, and analysis of variance (3 strains×saline vs drug×6 time blocks) was used to establish the presence of effects.

male Sprague Dawley rats = assay: Quantification of harmaline-induced tremor in rats (force plate actometer); assay type: in vivo, rat
Description: Thirty-two male Sprague Dawley rats from Harlan Co, Indianapolis, Ind., were studied.
The apparatus was the force plate actometer, described above, with no adjustments or modifications. If one were to use the instrument primarily for tremor studies, it would be possible to “tune” it for such purposes. For example, sessions of recording shorter than 30 min may be preferred and a sampling rate of 100 Hz or more may be desirable.
The rats were divided into 4 separate groups of 8 rats each. Separate groups received different doses of Harmaline hydrochloride as follows: 0.0 (saline), 4.0, 8.0, and 16.0 mg/kg, ip, 1-2 minutes before being placed in the recording chamber.
Data from the 30-min sessions were broken into 45 equal-length intervals of 40.96 s (or 2048 samples at a sampling rate of 50 Hz). […] Then, a tremor index was computed for each power spectrum. The tremor index was the difference between the average power in the 0.02-4.980 Hz frequency band and the 5.005-15.015 Hz frequency band of each power spectrum. This calculation emphasizes the peaking of the spectrum in the 5-15 Hz frequency band regardless of the absolute power level of the spectrum. A session average of the tremor index was obtained for each rat. Dose-effects statistical analyses were performed with one-way analysis of variance.

[4] = 3.0 mg/kg ip, Fourier analysis, FIG. 3

## C[C@H](N)Cc1ccccc1 [amphetamine, d-amphetamine sulfate]
BALB/c and C57BL/6 mice; BALB/c mice, untreated mean 92.5 rears
  mean number of wall rears: 3.75 rears/session
BALB/c and C57BL/6 mice; C57BL/6 mice, untreated mean 70.8 rears
  mean number of wall rears: 3.5 rears/session
[1]; 2.5 mg/kg ip, CD-1, C57BL/6, BALB/c, FIG. 15
  distance traveled, ranking of strains: CD-1's were stimulated the most and the BALB/c's the least
[1]; BALB/c mouse, the two highest doses (2.5 and 5.0 mg/kg)
  spatial statistic, restriction of movements in space: greater tendency to restrict its movements in space
[1]; C57BL/6 mouse, 2.5 mg/kg ip
  distance traveled across the 5 treatment days: showed a sensitization effect
[1]; one C57BL/6 mouse, fifth injection of 5.0 mg/kg ip, FIG. 14 versus saline FIG. 13
  movement trajectories (locomotion): locomotor stimulating effect of the drug is apparent
[1]; three mouse strains, saline, 1.0, 2.5, 5.0 mg/kg ip, 5 days, ANOVA dose F(3,84)=73.787, p<0.001, strain-by-dose F(6,84)=9.293, p<0.001, FIG. 15
  distance traveled, effect of dose: significant effects
[1]; three mouse strains, saline, 1.0, 2.5, 5.0 mg/kg ip, ANOVA dose F(3,84)=38.192, p<0.001, strain-by-dose F(6,84)=4.991, p<0.001, FIG. 16
  spatial statistic (spatial index), effect of dose: significant effects
[2]; one 6-OHDA lesioned rat, FIG. 8
  rotational behavior, movement tracings: robust rotational behavior
[2]; one 6-OHDA lesioned rat, third treatment, FIG. 10
  rotations to the right in 30-min session: 62 rotations
[2]; one 6-OHDA lesioned rat, third treatment, FIG. 12
  bouts of high activity with low mobility (stereotypy score): four
[2]; one unlesioned control rat, FIG. 7
  locomotion, movement tracings: very little locomotion
[2]; one unlesioned control rat, frame 14 to end of session, FIG. 11
  stereotypy score: 250-300
[2]; one unlesioned control rat, third treatment, FIG. 9
  leftward rotations at the beginning of the session: 12 rotations
Male Sprague-Dawley rats; 3.0 mg/kg ip 15 min before 30-min session, 3rd injection, FIG. 1
  number of low mobility bouts per frame versus saline control: comparable amounts of low mobility bouts
Male Sprague-Dawley rats; 3.0 mg/kg ip, 3rd injection, FIG. 2
  stereotypy score (activity during low mobility bouts) versus saline control: very active
Male Sprague-Dawley rats; 3.0 mg/kg ip, 3rd injection, n=9
  visual observation of stereotypies on removal from the chamber: all nine rats were engaged in classical nose poking, sniffing, and head-weaving stereotypies
Male Sprague-Dawley rats; 3.0 mg/kg ip, FIG. 3 versus FIG. 4, controls show no 10-Hz peak
  difference in spectral power, amphetamine rats above saline controls: 10-20 db
Male Sprague-Dawley rats; [4]
  frequency range of strong rhythmicity in power spectra of low mobility bouts: 8-11 Hz
  low frequency power in power spectra of low mobility bouts: distinctive lack of low frequency power below about 0.5 Hz

## CCO [ethanol]
[3]; ANOVA F(2,30)=3.257, p=0.05
  distance traveled, strain-by-ethanol interaction: significant strain-by-ethanol interaction
[3]; ANOVA F(5,150)=7.629, p<0.001
  distance traveled, time-by-ethanol interaction: significant-time-by-ethanol interaction
[3]; BALB/c strain
  locomotor stimulation during the first time block: greater amount of ethanol related locomotor stimulation
[3]; BALB/c, early in session
  proportional increase in activity, BALB/c versus other strains: greatest proportional increase in activity
[3]; CD-1 strain
  locomotor stimulation during the first time block: least stimulation
[3]; three mouse strains, 30 min in 5-min blocks, FIG. 17
  distance traveled versus saline treated mice: initially stimulated

## COc1ccc2c3c([nH]c2c1)C(C)=NCC3.Cl [harmaline, Harmaline hydrochloride]
Male Sprague Dawley rats; rats, 0, 4.0, 8.0, 16.0 mg/kg ip, session average, one-way ANOVA F (3,28)=5.090, p=0.006, FIG. 6
  effect of dose on tremor index: statistically significant
Male Sprague Dawley rats; rats, 0-16.0 mg/kg ip, F(2,28)=3.222, p=0.038
  latency to the first bout of low mobility: significantly shortened
Male Sprague Dawley rats; rats, 0-16.0 mg/kg ip, FIG. 6
  shape of the dose-effect function of the tremor index: log linear
Male Sprague Dawley rats; rats, 0-16.0 mg/kg ip, same session, F(3,28)=6.514, p=0.002
  effect on locomotor activity: dose-relatedly suppressed locomotor activity
Male Sprague Dawley rats; rats, the two higher doses (8.0 and 16.0 mg/kg ip), one rat per dose, FIG. 5
  peaking in the power spectra of Fz force: pronounced
